Earlier results as cited in US11555007B2, “Compositions and methods for the treatment of neurological diseases” (Cellix Bio Private Limited, priority 2018, dated 2023).

Test system: unipolar or bipolar patients in a major depressive episode
Settings: intravenous ketamine 0.5 mg/kg versus saline; all 8 treated patients

CNC1(c2ccccc2Cl)CCCCC1=O (stereo not shown) [ketamine, 2-(2-chlorophenyl)-2-(methylamino)cyclohexan-1-one]
improvement in depressive symptoms: significant improvement in depressive symptoms
